Source: patent US9891239B2, “Modulators of pharmacokinetic properties of therapeutics” (Gilead Sciences, Inc., priority 2007, dated 2018)

Tested on: wild-type HIV-1 strain IIIB
Experiment: Anti-HIV-1 cell culture assay (EC50), XTT readout of cytopathic effect in MT2 cells
Assay type: cell-based
Settings: Human immunodeficiency virus 1, IIIB, MT2, 120 h, read-out: protease inhibition activity represented by HIV EC50
Method: The assay is based on quantification of the HIV-1-associated cytopathic effect by a […] detection of the viability of virus-infected cells in the presence or absence of tested inhibitors. HIV-1-induced cell death was determined using a metabolic substrate 2,3-bis(2-methoxy-4-nitro-5-sulfophenyl)-2H-tetrazolium-5-carboxanilide (XTT) which is converted only by intact cells into a product with specific absorption characteristics as described by Weislow O S, Kiser R, Fine D L, Bader J, Shoemaker R H and Boyd M R, J. Natl. Cancer Inst. 81, 577 (1989) (herein incorporated by reference in its entirety for all purposes). […]
To determine the antiviral activity of the tested inhibitors, a substrate XTT solution (6 mL per assay plate) at a concentration of 2 mg/mL in a phosphate-buffered saline pH 7.4 was heated in water-bath for 5 min at 55° C. before 50 μl of N-methylphenazonium methasulfate (5 μg/mL) was added per 6 mL of XTT solution. […] Viability, as determined by the amount of XTT metabolites produced, was quantified spectrophotometrically by the absorbance at 450 nm (with subtraction of the background absorbance at 650 nm). […]

Q: For `CC(C)c1nc(CN(C)C(=O)N[C@@H](CCN2CCOCC2)C(=O)N[C@H](CC[C@H](Cc2ccccc2)NC(=O)OCc2cncs2)Cc2ccccc2)cs1` [Example S], which EC50 is on record?
A: > 30 µM
